The experiment concerns primary cultured mouse cortical neurons. The note with it: 10 μM, pH 6.0, n=8.
Turning to `CC(C)CCC[C@@H](C)[C@H]1CC[C@H]2[C@@H]3C[C@@H]4O[C@@]45C[C@@H](O)CC[C@]5(C)[C@H]3CC[C@]12C` [5α,6α-epoxy-Chol, 5α,6α-epoxycholesterol], the “protection against acid-induced neuronal injury (LDH release), analogs” value is reported as “none of them shows significant protection”.
For `CC(C)CCC[C@@H](C)[C@H]1CC[C@H]2[C@@H]3C[C@H]4O[C@]45C[C@@H](O)CC[C@]5(C)[C@H]3CC[C@]12C` [5β,6β-epoxy-Chol, 5β,6β-epoxycholesterol], the “protection against acid-induced neuronal injury (LDH release), analogs” value was “none of them shows significant protection”.
The value for `C[C@@]12CCC[C@H]1[C@@H]1C[C@@H](O)[C@@]3(O)C[C@@H](O)CC[C@]3(C)[C@H]1CC2` [Andro-triol, 5α-androst-3β, 5, 6β-triol] was “none of them shows significant protection”.

(Values after patent US20240165129A1, “METHODS OF TREATING PAIN AND DEPRESSION” (priority 2022, published 2024).)
